How the values were obtained:
[1] = system: foamed C57BL/6J mouse-derived macrophages; assay: ApoE secretion-promoting effect in foamed mouse peritoneal macrophages (Western blotting of supernatants); assay type: cell-based; conditions: BO-653 added at 3 and 10 μmol/L, 24 hours of culture, anti-mouse ApoE antibody, FIG. 1
Procedure: (§1) 4.05 w/v % thioglycollate-elicited intraperitoneally exuded cells were prepared from C57BL/6J and ApoE-deficient mice. The cells were inoculated on 12-well plate at 1.0×10^6 cells/well. The cells were cultured at 37° C. under 5 vol % CO2. After 3 hours of culture, the culture medium was changed to a fresh one to remove inadhesive cells, leaving mouse-peritoneal macrophages in each of the wells. Next day, the mouse-peritoneal macrophages were cultured in a medium containing 50 μg of protein per mL of acetylated LDL for 24 hours to form foam cells.
(§2) To the wells containing the foamed C57BL/6J mouse-derived macrophages, 4,6-di-t-butyl-2,2-dipentyl-5-hydroxy-2,3-dihydrobenzofuran (BO-653) was added to final concentrations of 0, 3 and 10 μmol/L. After 24 hours of culture, the supernatants were collected to prepare samples for SDS-PAGE.
The samples were subjected to 10 w/v % SDS-PAGE. Following the SDS-PAGE, the bands were transferred onto nitrocellulose papers using semi-drying method and blocked with TBS containing 10 w/v % skim milk and 0.1 vol % Tween-20. Rabbit anti-mouse ApoE-antibody (#K23100R, BIODESIGN) and peroxidase-labeled anti-rabbit IgG antibody (#7071-1, Cell Signaling TECHNOLOGY) were used as the first and secondary antibodies, respectively. ApoE was detected using chemoluminescence method (PIERCE).

[2] = system: foamed C57BL/6J mouse-derived macrophages; assay: Intracellular cholesterol-removing effect in foamed macrophages (enzymatic total cholesterol measurement); assay type: cell-based; conditions: for Cholesterol Reduction (%) Means: 24 hours, relative to the vehicle (0 μmol/L = 100.0)
Procedure: as §1, §2
On the other hand, the foamed macrophages which were cultured in the presence of BO-653 and harvested at the same time as the collection of the supernatants were extracted with a mixed solvent of hexane/2-propanol (3:2 v/v) to obtain lipids. Then, the total amount of cholesterol in the lipids was measured using the enzymatic method described by Yoshiki Kawabe et al., “Oxidation-Induced Aggregation of Rabbit Low-Density Lipoprotein by Azo Initiator”, Achieves of Biochemistry and Biophysics 310, 489-496 (1994). We regarded the total amount of cholesterol as intracellular cholesterol content of the macrophages.

[3] = system: C57BL/6J mice; assay: ApoE increasing effect in mouse serum (SDS-PAGE of lipoprotein-containing fractions); assay type: in vivo; conditions: high fat diet containing 0.65% BO-653 for 5 weeks versus high fat diet with no BO-653, FIG. 2
Procedure: Seven-week-old C57BL/6J mice were divided into first group of three and second group of four. The animals of the first and second groups were fed a high fat diet containing no BO-653 and 0.65% BO-653, respectively. After 5 weeks of diet initiation, the animals were anesthetized with ether and their blood was individually drawn from vena cava descendens. Serum samples were prepared from the drawn blood and 100 μL of each of the samples was placed into a tube. To the tube, 900 μL of sodium bromide solution having 1.256 density was added, and the tube was centrifuged in TL-100 desk type ultracentrifuge at 100,000 rpm for 20 hours using TLA-100.2 rotor. Lipoprotein-containing fraction thus obtained was collected and treated with 10 w/v % trichloroacetic acid solution. The precipitate was collected and dissolved into 80 μL of solution for SDS-PAGE. 10 μL of the solution was subjected to 15 w/v % SDS-PAGE and the gels were stained with Coomassie brilliant blue. By comparing the bands with molecular weight markers, ApoE was identified.

CCCCCC1(CCCCC)Cc2c(cc(C(C)(C)C)c(O)c2C(C)(C)C)O1 [BO-653, 4,6-di-t-butyl-2,2-dipentyl-5-hydroxy-2,3-dihydrobenzofuran]
saccharified-ApoE expression in culture supernatant [1]: increased saccharified-ApoE expression | Cholesterol Reduction (%) Means ([2]; BO-653 3 μmol/L): 132.6% | Cholesterol Reduction (%) Means ([2]; BO-653 10 μmol/L): 145.9% | intracellular cholesterol content of macrophages ([2]; treatment with BO-653, 24 hours, result in words): decrease in intracellular cholesterol content | ApoE production in serum lipoprotein-containing fraction [3]: increased ApoE production
